Test results published in PMC9182490, “N-Glucosylation in Corynebacterium glutamicum with YdhE from Bacillus lichenformis” (Molecules, 2022).

Biological target: T1, YdhE (CO-YdhE) (Bacillus licheniformis, UniProt Q62XT4)
T1 construct: 45 kDa band on SDS-PAGE; not purified
T1 sequence (Q62XT4 1-404): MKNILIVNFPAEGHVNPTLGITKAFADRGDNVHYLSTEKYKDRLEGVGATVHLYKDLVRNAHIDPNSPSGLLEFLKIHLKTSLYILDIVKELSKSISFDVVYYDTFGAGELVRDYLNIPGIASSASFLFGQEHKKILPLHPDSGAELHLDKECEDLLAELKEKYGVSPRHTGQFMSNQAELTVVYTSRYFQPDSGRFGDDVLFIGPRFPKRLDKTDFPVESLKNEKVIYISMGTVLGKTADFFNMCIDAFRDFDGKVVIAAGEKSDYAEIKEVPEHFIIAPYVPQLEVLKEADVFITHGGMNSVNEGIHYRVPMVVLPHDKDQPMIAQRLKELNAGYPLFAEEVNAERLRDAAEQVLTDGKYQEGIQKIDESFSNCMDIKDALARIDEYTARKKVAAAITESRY
Assay: whole-cell N-glucosylation, HPLC-PDA and HR-QTOF ESI/MS, product NMR
Format: cell-based, Corynebacterium glutamicum
Conditions: C. glutamicum harboring pSKSM-YdhE; glucose as sugar source, UDP-sugar donor made by host; 2 mM substrate, 37 °C; product is N-beta-D-glucopyranoside

**Q.** With CCCCOC(=O)c1ccc(N)cc1 [compound 2, butyl-4-aminobenzoate] as the compound, how does the “whole-cell N-glucosylation, HPLC-PDA and HR-QTOF ESI/MS, product NMR” value read?
**A.** confirmed the glucosylation of butyl-4-aminobenzoate
